In article PMC4671058, “Heterologous expression of newly identified galectin-8 from sea urchin embryos produces recombinant protein with lactose binding specificity and anti-adhesive activity” (Scientific Reports, 2015):

Molecular target: T1, Pl-GAL-8 (Paracentrotus lividus, UniProt A0A0U5C3R9)
T1 construct: gene galectin-8; tags kept; expressed in E. coli BL21(DE3)
T1 sequence (A0A0U5C3R9 1-311): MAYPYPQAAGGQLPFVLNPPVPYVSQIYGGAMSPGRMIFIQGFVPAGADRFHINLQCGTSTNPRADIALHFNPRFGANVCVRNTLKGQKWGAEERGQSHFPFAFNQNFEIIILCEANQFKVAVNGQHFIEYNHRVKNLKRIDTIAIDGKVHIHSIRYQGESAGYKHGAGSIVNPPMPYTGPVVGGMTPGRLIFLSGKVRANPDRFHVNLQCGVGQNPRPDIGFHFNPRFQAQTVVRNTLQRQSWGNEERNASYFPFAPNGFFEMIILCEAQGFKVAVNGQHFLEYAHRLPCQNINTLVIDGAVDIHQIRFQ
Experiment: inhibition of hemagglutination of human red blood cells
Type: cell-based
Conditions: 0.25 uM protein; PBS, room temperature, 40 min; lowest dose tested (1-20 mM)

OC[C@H]1O[C@@H](O[C@H]2[C@H](O)[C@@H](O)C(O)O[C@@H]2CO)[C@H](O)[C@@H](O)[C@H]1O (stereo partly shown) [lactose] was tested, and the effective inhibitory concentration was 1 mM.
